Results published in US20260176285A1, “SALT OF DIOXANE QUINOLINE COMPOUND, CRYSTAL FORM THEREOF, PREPARATION METHODS THEREFOR AND USES THEREOF” (Beijing Scitech-MQ Pharmaceuticals Limited, priority 2022, published 2026).

Columns and labels:
[1] = tested on: human lung cancer cells EBC-1; experiment: Efficacy in nude mouse tumor-bearing model of human lung cancer cells EBC-1; assay type: in vivo, Balb/c nude mouse
Description: In this assay, the free compound of formula (I) of the present application and different salts of the compound prepared in Examples 1, 2 and 5 were orally administered to a nude mouse tumor-bearing model of human lung cancer cells EBC-1 to study their effects on tumor growth.
Preparation of test compounds: an appropriate weight of the test compound (including the free form of the compound of formula (I) and different salts of the compound prepared in Examples 1, 2 and 5) was weighed, completely suspended/dissolved in an appropriate volume of 0.1% sodium carboxymethyl cellulose, stirred and vortexed to give a uniform solution or suspension.
Methods: All assays were authorized by the Animal Welfare Committee. EBC-1 in the logarithmic growth phase was inoculated into immune-deficient nude mice (BALB/c nude, female, 6-8 weeks old, weighing 18±2 g), subcutaneously on the right back, with a cell inoculation amount of 5×10^6/mouse. After the tumor grew to 150-200 mm^3, the animals were randomly divided into groups, 6 mice per group. The dose of each test substance was set at 15 mg/kg and 7.5 mg/kg (both based on the concentration of the effective formula (I) compound), and administered once a day for about 3 weeks. The test compounds were freshly prepared each day before use. During the assay, the tumor diameter was measured twice a week, and the mice were weighed at the same time. The calculation formula of tumor volume (TV) is: TV=1/2×a×b^2, where a and b represent length and width, respectively. The relative tumor volume (RTV) was calculated based on the measurement results, and the calculation formula is: RTV=Vt/V0, wherein V0 is the tumor volume measured at the time of cage grouping and dosing initiation (i.e., d0), and Vt is the tumor volume at each measurement. The evaluation index of antitumor activity is the relative tumor proliferation rate T/C (%), calculated as follows: T/C (%)=(TRTV/CRTV)×100%, TRTV: RTV of the treatment group; CRTV: RTV of the negative control group. T and C represent the average tumor volume at a certain time point in the drug administration group and the control group, respectively.

[2] = Dynamic solubility in water, SGF, FaSSIF and FeSSIF; assay type: physicochemical; design: S (dynamic solubility): unit not given here; details: listed as p-Toluenesulfonate salt crystal form A-II; for S (dynamic solubility): 37° C., feed 10 mg/mL
Procedure, shortened: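 Free form and salt crystal forms tested over time in water, SGF (pH 1.8), FaSSIF (pH 6.5) and FeSSIF (pH 5.0), simulated fluids made with SIF powder. At each time point samples were centrifuged, passed through 0.45 μm PTFE, and filtrate concentration (HPLC) and pH measured.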

[3] = Solid-state stability evaluation (XRPD, HPLC); assay type: physicochemical; details: for Purity / Purity/initial purity: listed as p-Toluenesulfonate salt crystal form A-II
Procedure: The following 6 test samples were placed under 25° C./60% RH and 40° C./75% RH conditions for 1 week, and then the physical and chemical stability of the samples was tested by XRPD and HPLC.
At the same time, after the p-toluenesulfonate salt crystal form A-II and crystal form B-III solids were placed at 80° C. for 24 hours, the physical and chemical stability of the samples were tested by XRPD and HPLC.

[4] = Hygroscopicity by dynamic moisture sorption (DVS); assay type: physicochemical; details: DVS, listed as p-Toluenesulfonate salt crystal form A-II
Procedure, shortened: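 Mass change of salt and free-form crystal samples recorded at 25° C over a 0% RH-95% RH-0% RH cycle. Steps were 10% RH (last step 5%) with a dm/dt equilibrium criterion of 0.002%/min.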

In the case of `O=C(Nc1ccc(F)cc1)C1(C(=O)Nc2ccc(Oc3ccnc4cc(OCCCN5CCOCC5)c5c(c34)OCCO5)c(F)c2)CC1` [Example 2, N-(3-fluoro-4-((5-(3-morpholinopropoxy)-2,3-dihydro-[1,4]dioxano[2,3-f]quinolin-10-yl)oxy)phenyl)-N-(4-fluorophenyl)cyclopropane-1,1-dicarboxamide], the “T/C (relative tumor proliferation rate)” value ([1]; 7.5 mg/kg oral once a day, day 7) is reported as 61.3%, the “T/C (relative tumor proliferation rate)” value ([1]; 7.5 mg/kg oral once a day, day 10) is reported as 47.4% and the “T/C (relative tumor proliferation rate)” value ([1]; 7.5 mg/kg oral once a day, day 14) is reported as 40.3%. For the same compound, the “T/C (relative tumor proliferation rate)” value ([1]; 7.5 mg/kg oral once a day, day 18) was 37.7%, the “T/C (relative tumor proliferation rate)” value ([1]; 7.5 mg/kg oral once a day, day 21) was 33.1% and the “T/C (relative tumor proliferation rate)” value ([1]; 15 mg/kg oral once a day, day 3) was 67.9%. For the same compound, the “T/C (relative tumor proliferation rate)” value ([1]; 15 mg/kg oral once a day, day 7) was 37.3%, the “T/C (relative tumor proliferation rate)” value ([1]; 15 mg/kg oral once a day, day 10) was 25.4% and the “T/C (relative tumor proliferation rate)” value ([1]; 15 mg/kg oral once a day, day 14) was 17.5%. For the same compound, the “T/C (relative tumor proliferation rate)” value ([1]; 15 mg/kg oral once a day, day 18) was 16.0%, the “T/C (relative tumor proliferation rate)” value ([1]; 15 mg/kg oral once a day, day 21) was 12.09% and the “S (dynamic solubility)” value ([2]; FaSSIF, 1 hour) was 0.073. The “pH of the filtrate” value ([2]; FaSSIF, 1 hour) was 6.1, the “S (dynamic solubility)” value ([2]; FaSSIF, 2 hours) was 0.066 and the “pH of the filtrate” value ([2]; FaSSIF, 2 hours) was 6.1. The “S (dynamic solubility)” value ([2]; FaSSIF, 4 hours) was 0.059, the “pH of the filtrate” value ([2]; FaSSIF, 4 hours) was 6.1 and the “S (dynamic solubility)” value ([2]; FaSSIF, 24 hours) was 0.072. The “pH of the filtrate” value ([2]; FaSSIF, 24 hours) was 5.1, the “S (dynamic solubility)” value ([2]; FeSSIF, 1 hour) was 1.8 and the “pH of the filtrate” value ([2]; FeSSIF, 1 hour) was 5.0. For the same compound, the “S (dynamic solubility)” value ([2]; FeSSIF, 2 hours) was 2.0, the “pH of the filtrate” value ([2]; FeSSIF, 2 hours) was 5.0 and the “S (dynamic solubility)” value ([2]; FeSSIF, 4 hours) was 1.5. The “pH of the filtrate” value ([2]; FeSSIF, 4 hours) was 5.0, the “S (dynamic solubility)” value ([2]; FeSSIF, 24 hours) was 0.84 and the “pH of the filtrate” value ([2]; FeSSIF, 24 hours) was 5.0. The “S (dynamic solubility)” value ([2]; H2O, 1 hour) was 2.7, the “pH of the filtrate” value ([2]; H2O, 1 hour) was 4.8 and the “S (dynamic solubility)” value ([2]; H2O, 2 hours) was 2.7. For the same compound, the “pH of the filtrate” value ([2]; H2O, 2 hours) was 4.9, the “S (dynamic solubility)” value ([2]; H2O, 4 hours) was 2.8 and the “pH of the filtrate” value ([2]; H2O, 4 hours) was 4.7. For the same compound, the “S (dynamic solubility)” value ([2]; H2O, 24 hours) was 2.5, the “pH of the filtrate” value ([2]; H2O, 24 hours) was 4.2 and the “S (dynamic solubility)” value ([2]; SGF, 1 hour) was 6.8. For the same compound, the “pH of the filtrate” value ([2]; SGF, 1 hour) was 2.3, the “S (dynamic solubility)” value ([2]; SGF, 2 hours) was “completely dissolved” and the “S (dynamic solubility)” value ([2]; SGF, 4 hours) was “completely dissolved”. The “S (dynamic solubility)” value ([2]; SGF, 24 hours) was 6.3, the “pH of the filtrate” value ([2]; SGF, 24 hours) was 2.3 and the Purity ([3]; 25° C./60% RH, 1 week) was 99.52 area %. The Purity/initial purity ([3]; 25° C./60% RH, 1 week) was 100.1%, the Purity/initial purity ([3]; 40° C./75% RH, 1 week) was 100.0% and the “Change of Crystal form” value ([3]; 80° C., 24 hours) was “no”. For the same compound, the Purity ([3]; 80° C., 24 hours) was 99.42 area %, the “Moisture adsorption (25° C./80% RH)” value ([4]; 25° C./80% RH) was 0.52% and the Hygroscopicity ([4]; 25° C.) was “Slightly”.
